Source: patent publication EP4647073A1, “MURRAYA KOENIGII IN THE TREATMENT OF UPPER RESPIRATORY TRACT INFECTIONS” (Nutraceutical Technology Pharma Biotech S.r.l., priority 2024, dated 2025)

Assays:
S. pyogenes (ATCC 19615) = test: Agar well diffusion method, antibacterial activity; format: cell-based; details: Streptococcus pyogenes
Description: The agar well diffusion method was used for the assessment of the antibacterial activity of M. koenigii leaves against S. pyogenes (ATCC 19615). Six DMSO extracts of M. koenigii leaves from different geographical origins were tested. Antibacterial assay was performed on M17 agar ([…] Abruzzi, Italy). An overnight anaerobic culture of S. pyogenes grown at 37°C, was diluted in order to obtain a suspension containing approximately 1×10^8 CFU/ml. Each agar plate was spread with the microbial suspension. Using a sterile agar gel puncher, equidistant wells were created and filled with 0.1 ml of each sample. The plates were allowed to stand for 30 minutes to allow pre-diffusion of the tested samples, and thereafter incubated at 37°C for 24 h under anaerobic conditions. After incubation, the diameter of any zone of inhibition surrounding each well was measured. Each experiment was performed in triplicates and the means were calculated. […] Louis, USA). Each standard was weighed separately, solubilized in methanol and diluted in DMSO. […] Antibacterial assay was performed on M17 agar ([…] Abruzzi, 25 Italy). An overnight anaerobic culture of S. pyogenes, grown at 37°C, was diluted approximately to obtain 1×10^8 CFU/ml and spread on M17 agar. Using a sterile agar gel puncher, equidistant wells were created and filled with 0.1 ml of each extraction solvent. The plate was allowed to stand for 30 minutes to allow pre-diffusion of the tested samples, and thereafter incubated at 37°C. The zone of inhibition around each well was measured in mm.

[1] = Release of carbazole alkaloids from the chewing gum of Example 5 during chewing (HPLC/DAD of chewed bolus); format: in vivo, healthy adult volunteers; details: average of three chewers
Description: The chromatographic separation was performed by an HPLC/DAD system series 1200 from Agilent (Agilent Technologies, Santa […], California, USA); the analytical column was a Kinetex C18 5um, 100A (150 mm x 3.00 mm i.d.) from Phenomenex (Phenomenex SRL, Bologna; Italy) equipped with a security guard column. […] The elution of the analytes was carried out with a gradient method: initial condition was 40% of ACN, then brought to 90% in 10 minutes and kept for 8 minutes. […] An aliquot of each solution was withdrawn in order to prepare a mix standard solution and a calibration curve from 0.5 ppm to 4.0 ppm in MeOH was created for the quantification of samples. […] Each chewed bolus of the resulting 4 chewing tests, was frozen overnight and then weighed, ground and added with MeOH. The supernatant was filtered and analysed by HPLC/DAD. In Table 4 below, the release results are reported, being focused on the main actives of M. koenigii. Table 4: […]

S. pyogenes = test: TTC assay (broth microdilution) for MIC and MBC determination; format: cell-based, Streptococcus pyogenes; details: for inhibition at 250 µg/mL (stock) / OD 480 nm (24 h) / OD 600 nm (24 h) / log10 (CFU/ml): duplicate wells
Description: Louis, MO) as colorimetric indicator. In the presence of living bacteria, the colourless TTC is reduced to red formazan. […] Two different stock solutions of M. koenigii leaves were prepared in DMSO at concentrations of 100 mg/ml (1:10) and 20 mg/ml (1:50). Two-fold dilution method was performed in order to obtain a concentration range of 0.04 mg/ml to 10 mg/ml for the 20 mg/ml stock solution and of 0.2 mg/ml to 50 mg/ml for the 100 mg/ml stock solution. An overnight anaerobic culture of S. pyogenes grown at 37°C was adjusted to a final concentration of 1x10^7 CFU/ml in M17 broth ([…] Abruzzi, Italy) and added to the microplate wells containing different concentrations of the extract, in order to obtain a final inoculum of approximately 1x10^6 CFU/well. The microplate was incubated at 37°C under anaerobic conditions for 24 h. […] To discriminate between bactericidal/bacteriostatic activity of the extract, 100 μl aliquots from each tested dilution were used to calculate the number of viable cells (CFU/ml) by plate count method and 10 μl aliquots from the same wells were streaked on M17 agar plates (Figure 3). […] TTC assay is depicted in Figure 4, where a picture of the microplate used for the TTC assay is reported. […] Table 2: Antibacterial activity of DMSO extract of M. koenigii leaves against S. pyogenes. All results are the mean of triplicates wells. […] Medium M17 (blank), positive control (S. pyogenes without M. koenigii), Ext. (Extract). A stock solution of amoxicillin (Sigma-Aldrich, St. Louis, USA) was prepared at a concentration of 0.25 mg/ml in DMSO. The antibacterial properties against S. pyogenes of the plant extract alone, amoxicillin alone and their combination were evaluated by TTC assay as mentioned above. For the experiment, the 20 mg/ml stock solution of M. koenigii leaves was used and a solution containing 0.25 mg/ml amoxicillin and 20 mg/ml extract was prepared.

[2] = Table 3, dilution 1:2 of stock (amoxicillin 0.25 mg/ml; mix 0.25 mg/ml amoxicillin and 20 mg/ml extract)
[3] = Table 3, dilution 1:4 of stock (amoxicillin 0.25 mg/ml; mix 0.25 mg/ml amoxicillin and 20 mg/ml extract)
[4] = Table 3, dilution 1:8 of stock (amoxicillin 0.25 mg/ml; mix 0.25 mg/ml amoxicillin and 20 mg/ml extract)
[5] = Table 3, dilution 1:16 of stock (amoxicillin 0.25 mg/ml; mix 0.25 mg/ml amoxicillin and 20 mg/ml extract)
[6] = Table 3, dilution 1:32 of stock (amoxicillin 0.25 mg/ml; mix 0.25 mg/ml amoxicillin and 20 mg/ml extract)
[7] = Table 3, dilution 1:64 of stock (amoxicillin 0.25 mg/ml; mix 0.25 mg/ml amoxicillin and 20 mg/ml extract)
[8] = Table 3, dilution 1:128 of stock (amoxicillin 0.25 mg/ml; mix 0.25 mg/ml amoxicillin and 20 mg/ml extract)

With CC(C)=CCCC1(C)C=Cc2c(c(C)cc3c2[nH]c2ccccc23)O1 (centres unmarked) [Mahanimbine] the zone of inhibition at 6 µg/mL (S. pyogenes (ATCC 19615); ATCC19615, read-out: inhibition zone) was ~20 mm, the “% release” value ([1]; chewing gum of Example 5, chewing time 0.0 min) was 0.0% and the “% release” value ([1]; chewing gum of Example 5, chewing time 5.0 min) was 54.7%. For the same compound, the “% release” value ([1]; chewing gum of Example 5, chewing time 10.0 min) was 51.5%, the “% release” value ([1]; chewing gum of Example 5, chewing time 15.0 min) was 59.7% and the “% release” value ([1]; chewing gum of Example 5, chewing time 20.0 min) was 54.7%.

COc1ccc2[nH]c3c4c(c(C)cc3c2c1)OC(C)(C)C=C4 [Koenimbine] gave a zone of inhibition at 4 µg/mL (S. pyogenes (ATCC 19615); ATCC19615, standard at 4 µg/ml, 0.1 ml per well, M17 agar, 37°C) of ~18 mm.

In the case of CC1(C)S[C@@H]2[C@H](NC(=O)[C@H](N)c3ccc(O)cc3)C(=O)N2[C@H]1C(=O)O [Amoxicillin, amoxicillin], the inhibition at 250 µg/mL (stock) (S. pyogenes; Streptococcus pyogenes, Table 3, dilution 1:2 of stock (amoxicillin 0.25 mg/ml; mix 0.25 mg/ml amoxicillin and 20 mg/ml extract)) is reported as 100%, the inhibition at 250 µg/mL (stock) (S. pyogenes; Streptococcus pyogenes, Table 3, dilution 1:4 of stock (amoxicillin 0.25 mg/ml; mix 0.25 mg/ml amoxicillin and 20 mg/ml extract)) is reported as 100% and the inhibition at 250 µg/mL (stock) (S. pyogenes; Streptococcus pyogenes, Table 3, dilution 1:8 of stock (amoxicillin 0.25 mg/ml; mix 0.25 mg/ml amoxicillin and 20 mg/ml extract)) is reported as 100%. It also gave an inhibition at 250 µg/mL (stock) (S. pyogenes; Streptococcus pyogenes, Table 3, dilution 1:16 of stock (amoxicillin 0.25 mg/ml; mix 0.25 mg/ml amoxicillin and 20 mg/ml extract)) of 48.6%, an inhibition at 250 µg/mL (stock) (S. pyogenes; Streptococcus pyogenes, Table 3, dilution 1:32 of stock (amoxicillin 0.25 mg/ml; mix 0.25 mg/ml amoxicillin and 20 mg/ml extract)) of 40.6% and an inhibition at 250 µg/mL (stock) (S. pyogenes; Streptococcus pyogenes, Table 3, dilution 1:64 of stock (amoxicillin 0.25 mg/ml; mix 0.25 mg/ml amoxicillin and 20 mg/ml extract)) of 41.5%. The inhibition at 250 µg/mL (stock) (S. pyogenes; Streptococcus pyogenes, Table 3, dilution 1:128 of stock (amoxicillin 0.25 mg/ml; mix 0.25 mg/ml amoxicillin and 20 mg/ml extract)) was 42%, the MIC (S. pyogenes; Streptococcus pyogenes, M17 broth, 37°C, anaerobic, 24 h) was 16 µg/mL and the MBC (S. pyogenes; Streptococcus pyogenes, M17 broth, 37°C, anaerobic, 24 h, complete inhibition of growth) was 31 µg/mL. The “OD 480 nm (24 h)” value (S. pyogenes; [2]) was 0.003, the “OD 600 nm (24 h)” value (S. pyogenes; [2]) was 0.002 and the “log10 (CFU/ml)” value (S. pyogenes; [2]) was 0.00 log10 (CFU/ml). The “OD 480 nm (24 h)” value (S. pyogenes; [3]) was 0.001, the “OD 600 nm (24 h)” value (S. pyogenes; [3]) was 0.011 and the “log10 (CFU/ml)” value (S. pyogenes; [3]) was 0.00 log10 (CFU/ml). For the same compound, the “OD 480 nm (24 h)” value (S. pyogenes; [4]) was 0.005, the “OD 600 nm (24 h)” value (S. pyogenes; [4]) was 0.026 and the “log10 (CFU/ml)” value (S. pyogenes; [4]) was 0.00 log10 (CFU/ml). The “OD 480 nm (24 h)” value (S. pyogenes; [5]) was 0.057, the “OD 600 nm (24 h)” value (S. pyogenes; [5]) was 0.088 and the “log10 (CFU/ml)” value (S. pyogenes; [5]) was 4.51 log10 (CFU/ml). The “OD 480 nm (24 h)” value (S. pyogenes; [6]) was 0.098, the “OD 600 nm (24 h)” value (S. pyogenes; [6]) was 0.137 and the “log10 (CFU/ml)” value (S. pyogenes; [6]) was 5.20 log10 (CFU/ml). For the same compound, the “OD 480 nm (24 h)” value (S. pyogenes; [7]) was 0.120, the “OD 600 nm (24 h)” value (S. pyogenes; [7]) was 0.158 and the “log10 (CFU/ml)” value (S. pyogenes; [7]) was 5.12 log10 (CFU/ml). For the same compound, the “OD 480 nm (24 h)” value (S. pyogenes; [8]) was 0.140, the “OD 600 nm (24 h)” value (S. pyogenes; [8]) was 0.161 and the “log10 (CFU/ml)” value (S. pyogenes; [8]) was 5.08 log10 (CFU/ml).

In the case of COc1cc2[nH]c3c4c(c(C)cc3c2cc1OC)OC(C)(C)C=C4 [Koenigicine], the zone of inhibition at 3 µg/mL (S. pyogenes (ATCC 19615); ATCC19615, standard at 3 µg/ml, 0.1 ml per well, M17 agar, 37°C) is reported as ~20 mm.
